Experimental data as given in patent US10206394B2, “Herbicidal compounds” (Syngenta Participations AG, priority 2014, dated 2019).
Like-named read-outs stand apart in the source and are kept apart here.

Columns and labels:
Assay in all cases: Glasshouse assay for herbicidal activity (pre- and post-emergence), percentage phytotoxicity
Assay type in all cases: in vivo
[1] = tested on: Avena fatua (AVEFA); conditions: Avena fatua
Outline: (§1)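 Damage was rated visually as percent phytotoxicity, 100% meaning total kill, 20 days after pre-emergence application (made one day post-sowing) or 15 days after post-emergence application (made about 12 days post-sowing). Plants were grown under 16 h light, 65% humidity, warm species 24/18° C, cool 20/16° C.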

[2] = tested on: Lolium perenne (LOLPE); conditions: Lolium perenne
Outline: as §1

[3] = tested on: Alopecurus myosuroides (ALOMY); conditions: Alopecurus myosuroides
Outline: as §1

[4] = tested on: Echinochloa crus-galli (ECHCG); conditions: Echinochloa crus-galli
Outline: as §1

[5] = post-emergence, 360 h, POST-emergence, rate 250 g/ha, visual score 15 DAA (100%=total damage, 0%=no damage), read-out: Post-emergence herbicidal activity (percentage phytotoxicity) AVEFA POST
[6] = pre-emergence, 480 h, PRE-emergence, rate 250 g/ha, visual score 20 DAA (100%=total damage, 0%=no damage), read-out: Pre-emergence herbicidal activity (percentage phytotoxicity) AVEFA PRE
[7] = post-emergence, 360 h, POST-emergence, rate 250 g/ha, visual score 15 DAA (100%=total damage, 0%=no damage), read-out: Post-emergence herbicidal activity (percentage phytotoxicity) LOLPE POST
[8] = pre-emergence, 480 h, PRE-emergence, rate 250 g/ha, visual score 20 DAA (100%=total damage, 0%=no damage), read-out: Pre-emergence herbicidal activity (percentage phytotoxicity) LOLPE PRE
[9] = post-emergence, 360 h, POST-emergence, rate 250 g/ha, visual score 15 DAA (100%=total damage, 0%=no damage), read-out: Post-emergence herbicidal activity (percentage phytotoxicity) ALOMY POST
[10] = pre-emergence, 480 h, PRE-emergence, rate 250 g/ha, visual score 20 DAA (100%=total damage, 0%=no damage), read-out: Pre-emergence herbicidal activity (percentage phytotoxicity) ALOMY PRE
[11] = post-emergence, 360 h, POST-emergence, rate 250 g/ha, visual score 15 DAA (100%=total damage, 0%=no damage), read-out: Post-emergence herbicidal activity (percentage phytotoxicity) ECHCG POST
[12] = pre-emergence, 480 h, PRE-emergence, rate 250 g/ha, visual score 20 DAA (100%=total damage, 0%=no damage), read-out: Pre-emergence herbicidal activity (percentage phytotoxicity) ECHCG PRE

SMILES | pest or weed control at 250 g/ha [1, 5] [%] | pest or weed control at 250 g/ha [1, 6] [%] | pest or weed control at 250 g/ha [2, 7] [%] | pest or weed control at 250 g/ha [2, 8] [%] | pest or weed control at 250 g/ha [3, 9] [%] | pest or weed control at 250 g/ha [3, 10] [%] | pest or weed control at 250 g/ha [4, 11] [%] | pest or weed control at 250 g/ha [4, 12] [%] | also measured
CC#Cc1cc(C)c(C2C(=O)CC(CC(=O)NCc3cccc(Cl)c3)C2=O)c(C)c1 (stereo not shown) [Compound B182] | 100 | 90 | 100 | 100 | 100 | 100 | 100 | 100 | –
Cc1cc(OCC(F)(F)F)cc(C)c1C1C(=O)CC(CC(=O)NC(C)C)C1=O (stereo not shown) [Compound B208] | 90 | 80 | 90 | 80 | 90 | 90 | 100 | 100 | –
C=CCNC(=O)CC1CC(=O)C(c2c(C)cc(C#CC)cc2C)C1=O (stereo not shown) [Compound B157] | – | – | – | – | – | – | – | – | pest or weed control at 250 g/ha ([1]; post-emergence, 360 h, 250 g/ha, post-emergence, 15 DAA, visual assessment (100%=total damage, 0%=no damage), read-out: Post-emergence herbicidal activity (percentage phytotoxicity) AVEFA POST): 100%; pest or weed control at 250 g/ha ([1]; pre-emergence, 480 h, 250 g/ha, pre-emergence, 20 DAA, visual assessment (100%=total damage, 0%=no damage), read-out: Pre-emergence herbicidal activity (percentage phytotoxicity) AVEFA PRE): 90%; pest or weed control at 250 g/ha ([2]; post-emergence, 360 h, 250 g/ha, post-emergence, 15 DAA, visual assessment (100%=total damage, 0%=no damage), read-out: Post-emergence herbicidal activity (percentage phytotoxicity) LOLPE POST): 100%; pest or weed control at 250 g/ha ([2]; pre-emergence, 480 h, 250 g/ha, pre-emergence, 20 DAA, visual assessment (100%=total damage, 0%=no damage), read-out: Pre-emergence herbicidal activity (percentage phytotoxicity) LOLPE PRE): 100%; pest or weed control at 250 g/ha ([3]; post-emergence, 360 h, 250 g/ha, post-emergence, 15 DAA, visual assessment (100%=total damage, 0%=no damage), read-out: Post-emergence herbicidal activity (percentage phytotoxicity) ALOMY POST): 100%; pest or weed control at 250 g/ha ([3]; pre-emergence, 480 h, 250 g/ha, pre-emergence, 20 DAA, visual assessment (100%=total damage, 0%=no damage), read-out: Pre-emergence herbicidal activity (percentage phytotoxicity) ALOMY PRE): 100%; pest or weed control at 250 g/ha ([4]; post-emergence, 360 h, 250 g/ha, post-emergence, 15 DAA, visual assessment (100%=total damage, 0%=no damage), read-out: Post-emergence herbicidal activity (percentage phytotoxicity) ECHCG POST): 100%; pest or weed control at 250 g/ha ([4]; pre-emergence, 480 h, 250 g/ha, pre-emergence, 20 DAA, visual assessment (100%=total damage, 0%=no damage), read-out: Pre-emergence herbicidal activity (percentage phytotoxicity) ECHCG PRE): 100%
Cc1cc(OCC(F)(F)F)cc(C)c1C1C(=O)CC(CC(=O)NCc2ccc(C#N)cc2)C1=O (stereo not shown) [Compound B207] | 50 | 0 | 60 | 10 | 80 | 40 | 90 | 40 | –
Cc1cc(-c2ccc(C(F)(F)F)cn2)cc(C)c1C1C(=O)CC(CC(=O)NCc2cccc(C(F)(F)F)c2)C1=O (stereo not shown) [Compound A153] | – | – | – | – | – | – | – | – | pest or weed control at 250 g/ha ([1]; post-emergence, 360 h, Rate 250 g/ha, post-emergence, assessed visually 15 DAA, 100%=total damage, 0%=no damage, read-out: Post-emergence herbicidal activity (percentage phytotoxicity) AVEFA POST): 90%; pest or weed control at 250 g/ha ([1]; pre-emergence, 480 h, Rate 250 g/ha, pre-emergence, assessed visually 20 DAA, 100%=total damage, 0%=no damage, read-out: Pre-emergence herbicidal activity (percentage phytotoxicity) AVEFA PRE): 70%; pest or weed control at 250 g/ha ([2]; post-emergence, 360 h, Rate 250 g/ha, post-emergence, assessed visually 15 DAA, 100%=total damage, 0%=no damage, read-out: Post-emergence herbicidal activity (percentage phytotoxicity) LOLPE POST): 70%; pest or weed control at 250 g/ha ([2]; pre-emergence, 480 h, Rate 250 g/ha, pre-emergence, assessed visually 20 DAA, 100%=total damage, 0%=no damage, read-out: Pre-emergence herbicidal activity (percentage phytotoxicity) LOLPE PRE): 60%; pest or weed control at 250 g/ha ([3]; post-emergence, 360 h, Rate 250 g/ha, post-emergence, assessed visually 15 DAA, 100%=total damage, 0%=no damage, read-out: Post-emergence herbicidal activity (percentage phytotoxicity) ALOMY POST): 90%; pest or weed control at 250 g/ha ([3]; pre-emergence, 480 h, Rate 250 g/ha, pre-emergence, assessed visually 20 DAA, 100%=total damage, 0%=no damage, read-out: Pre-emergence herbicidal activity (percentage phytotoxicity) ALOMY PRE): 30%; pest or weed control at 250 g/ha ([4]; post-emergence, 360 h, Rate 250 g/ha, post-emergence, assessed visually 15 DAA, 100%=total damage, 0%=no damage, read-out: Post-emergence herbicidal activity (percentage phytotoxicity) ECHCG POST): 90%; pest or weed control at 250 g/ha ([4]; pre-emergence, 480 h, Rate 250 g/ha, pre-emergence, assessed visually 20 DAA, 100%=total damage, 0%=no damage, read-out: Pre-emergence herbicidal activity (percentage phytotoxicity) ECHCG PRE): 90%
